Eight molecules from patent US8404692B2, “Pyrimidin-4-yl-3, 4-dihydro-2H-pyrrolo [1,2A] pyrazin-1-one compounds” (Cyclacel Limited, priority 2005, dated 2013) can be followed below.

Some results are limits rather than exact numbers.

Assay [1] has as its target human CDK7/cyclin H (Homo sapiens, UniProt P50613). Put plainly: CDK 7 and 9 assays: CDK7/H. It counts as biochemical. The conditions noted are these: in vitro kinase data. Here is the method: (§1) The compounds of the invention above were investigated for their ability to inhibit the enzymatic activity of various protein kinases. This was achieved by measurement of incorporation of radioactive phosphate from ATP into appropriate polypeptide substrates. Recombinant protein kinases and kinase complexes were produced or obtained commercially. Assays were performed using 96-well plates and appropriate assay buffers (typically 25 mM β-glycerophosphate, 20 mM MOPS, 5 mM EGTA, 1 mM DTT, 1 mM […], pH 7.4), into which were added 2-4 μg of active enzyme with appropriate substrates. The reactions were initiated by addition of Mg/ATP mix (15 mM MgCl2+100 μM ATP with 30-50 kBq per well of [γ-^32P]-ATP) and mixtures incubated as required at 30° C. Reactions were stopped on ice, followed by filtration through p81 filterplates or GF/C filterplates (Whatman Polyfiltronics, Kent, UK). After washing 3 times with 75 mM aq orthophosphoric acid, plates were dried, scintillant added and incorporated radioactivity measured in a scintillation counter (TopCount, Packard Instruments, Pangbourne, Berks, UK). Compounds for kinase assay were made up as 10 mM stocks in DMSO and diluted into 10% DMSO in assay buffer. Data was analysed using curve-fitting software (GraphPad Prism version 3.00 for Windows, GraphPad Software, San Diego Calif. USA) to determine IC50 values (concentration of test compound which inhibits kinase activity by 50%).
CTD peptide substrate (biotinyl-Ahx-(Tyr-Ser-Pro-Thr-Ser-Pro-Ser)4-NH2; 1-2 mg/mL) and recombinant human CDK7/cyclin H, CDK9/cyclin T1, or CDK9/cyclin K (0.5-2 μg) were incubated for 45 min at 30° C. in the presence of varying amounts of test compound in 20 mM MOPS pH 7.2, 25 mM β-glycerophosphate, 5 mM EGTA, 1 mM DTT, 1 mM sodium vanadate, 15 mM MgCl2, and 100 μM ATP (containing a trace amount of ^32PγATP) in a total volume of 25 μL in a 96-well microtiter plate. […] Microscint 40 scintillation liquid (50 μL) was added to each well, and the amount of ^32P incorporation for each sample was measured using a Packard Topcount microplate scintillation counter.

Assay [2] relates to nuclear phospho-Histone H3 and/or MPM2 staining. Put plainly: Cellomics Arrayscan assay for mitotic index (PH3 and MPM2 staining). It counts as cell-based. The conditions noted are these: for IC50: IC50 of phosphorylated Histone H3 staining normalised using MPM2 staining, read-out: MI (Cellomics) PH3/MPM2 IC50*; for MI (Cellomics) MPM2 % of Control**: cells stained with MPM2 Ab after treatment, as % of MPM2 stained cells treated with vehicle (DMSO). How it is done: The percentage of cells with nuclear phospho-Histone H3 and/or MPM2 staining were determined in 96-well plate assays using the Cellomics Arrayscan Mitotic Index HitKit protocol (Cellomics Inc). Briefly, cells were plated at 10^4 cells per well and incubated for 16-18 h at 37° C. Compounds were added and the cells incubated for the appropriate time before a 15 min fixation in 3.7% formaldehyde in wash buffer (Cellomics Inc.). Cells were permeabilised in 0.2% Triton in wash buffer for 15 min, washed, then incubated with primary antibodies that specifically recognise mitotic epitopes; rabbit anti-phosphohistone H3 (Upstate 06570) or mouse anti-phospho-Ser/Thr-Pro MPM2 (Upstate 05-368). After a 1 h incubation cells were washed and incubated with secondary FITC-conjugated anti-mouse and/or TRITC-conjugated anti-rabbit secondary antibodies (Jackson laboratories) and Hoescht dye. After a further 1 h incubation the cells were washed, then the plate was analysed using a Cellomics Arrayscan II automated fluorescent microscopy system to detect nuclear fluorescent staining. Data for 2000 cells per well were stored and the percentage of cells expressing mitotic epitopes compared to total cells (stained with Hoescht dye) was calculated using the Cellomics mitotic index algorithm.

Assay [3] concerns A2780. Put plainly: MTT cytotoxicity assay A2780. It is filed as cell-based. As to conditions: Homo sapiens; A2780 cells, 96-h MTT. How it is done: (§2) The compounds of the invention were subjected to a standard cellular proliferation assay using cell lines […] and MiaPaCa (obtained from The European Collection of Cell Cultures). […] C.; Thomas, D. G.; Darling, J. L. Anti Cancer Drugs 1996, 7, 331-8; Loveland, B. E.; Johns, T. G.; Mackay, I. R.; Vaillant, F.; Wang, Z. X.; Hertzog, P. J. Biochemistry International 1992, 27, 501-10). In short: cells were seeded into 96-well plates according to doubling time and incubated overnight at 37° C. […] MTT was made up as a stock of 5 mg/mL in cell media and filter-sterilised. Media was removed from cells followed by a wash with 200 μL PBS. MTT solution was then added at 20 μL per well and incubated in the dark at 37° C. for 4 h. MTT solution was removed and cells again washed with 200 μL PBS. MT dye was solubilised with […] per well of DMSO with agitation. Absorbance was read at 540 nm and data analysed using curve-fitting software (GraphPad Prism version 3.00 for Windows, GraphPad Software, San Diego Calif. USA) to determine IC50 values (concentration of test compound which inhibits cell growth by 50%).

The test system of assay [4] is MiaPaCa. The assay is described as follows: MTT cytotoxicity assay MiaPaCa. It counts as cell-based. As to conditions: Homo sapiens, MIA PaCa-2; MiaPaCa cells, 96-h MTT. Here is the method:
as §2

The target of assay [5] is T1, aurora-A (human) (Homo sapiens, UniProt O14965).
T1 construct: purchased Upstate, Dundee, UK
T1 sequence (O14965 1-403): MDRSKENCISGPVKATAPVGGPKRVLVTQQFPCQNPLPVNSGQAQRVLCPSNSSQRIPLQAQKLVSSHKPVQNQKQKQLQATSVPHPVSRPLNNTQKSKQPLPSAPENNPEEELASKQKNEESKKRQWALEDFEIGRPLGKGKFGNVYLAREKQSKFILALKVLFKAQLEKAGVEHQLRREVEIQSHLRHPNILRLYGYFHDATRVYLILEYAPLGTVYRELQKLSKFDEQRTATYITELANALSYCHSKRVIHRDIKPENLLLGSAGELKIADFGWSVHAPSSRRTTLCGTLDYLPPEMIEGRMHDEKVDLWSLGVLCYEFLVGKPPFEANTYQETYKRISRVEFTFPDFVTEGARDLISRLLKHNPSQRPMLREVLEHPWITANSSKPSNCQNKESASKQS
The assay is described as follows: Aurora-A (human) kinase assay. It counts as biochemical. The conditions noted are these: read-out: Activity (Aurora A activity, IC50 grading). The method in brief:
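Radiometric assay measuring [γ-32P] transfer from 100 μM ATP to 500 μM Kemptide by 2-5 ng active human aurora-A, pH 7.5 buffer, 30 min at 30° C. Incorporated label captured on P81 filters and counted by scintillation; IC50 from curve fitting.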

For assay [6], the target named is CDK2/E (Homo sapiens, UniProt P24941). Put plainly: In vitro kinase assay CDK2/E. It is filed as biochemical. The conditions noted are these: in vitro kinase data. Here is the method:
as §1, with “Data was analysed using curve-fitting software (GraphPad Prism version 3.00 for Windows, GraphPad Software, San Diego Calif. USA) to determine IC50 values (concentration of test compound which inhibits kinase activity by 50%).” left out

Sequence of human CDK7/cyclin H (P50613 whole entry): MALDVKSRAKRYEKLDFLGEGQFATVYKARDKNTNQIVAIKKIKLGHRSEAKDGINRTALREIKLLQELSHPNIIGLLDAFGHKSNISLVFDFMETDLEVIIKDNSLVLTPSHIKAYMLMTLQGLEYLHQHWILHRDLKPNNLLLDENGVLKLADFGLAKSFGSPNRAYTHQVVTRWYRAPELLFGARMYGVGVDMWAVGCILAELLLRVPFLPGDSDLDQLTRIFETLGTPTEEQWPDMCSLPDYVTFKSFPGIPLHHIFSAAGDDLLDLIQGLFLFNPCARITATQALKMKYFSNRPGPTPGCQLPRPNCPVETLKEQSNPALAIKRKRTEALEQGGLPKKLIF
Sequence of human CDK7/cyclin H (P51946 whole entry partner): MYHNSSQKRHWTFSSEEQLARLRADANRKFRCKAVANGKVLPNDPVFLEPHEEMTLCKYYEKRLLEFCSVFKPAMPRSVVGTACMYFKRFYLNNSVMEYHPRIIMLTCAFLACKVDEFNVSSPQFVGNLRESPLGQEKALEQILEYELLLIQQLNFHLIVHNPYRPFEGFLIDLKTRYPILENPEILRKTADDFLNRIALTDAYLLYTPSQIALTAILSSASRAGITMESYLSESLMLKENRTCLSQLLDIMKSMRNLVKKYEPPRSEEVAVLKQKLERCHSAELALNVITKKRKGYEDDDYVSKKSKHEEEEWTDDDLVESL

In turn, `Cc1c(-c2ccnc(Nc3ccc(N4CCOCC4)cc3)n2)c(C)n2c1C(=O)NCC2` [Example I-2, 6,8-Dimethyl-7-[2-(4-morpholin-4-yl-phenylamino)-pyrimidin-4-yl]-3,4-dihydro-2H-pyrrolo[1,2-a]pyrazin-1-one] had a Ki in assay [1] of 3.41 µM. In addition, the IC50 was 9.2 µM in assay [2], 0.575 µM in assay [3], 1.8 µM in assay [4] and less than 1 µM in assay [5]. In addition, the “MI (Cellomics) MPM2 % of Control**” value in assay [2] is recorded as 333%.
Consider `Cc1c(-c2ccnc(Nc3ccc(F)cc3)n2)c(C)n2c1C(=O)NCC2` [Example I-1, 7-[2-(4-Fluoro-phenylamino)-pyrimidin-4-yl]-6,8-dimethyl-3,4-dihydro-2H-pyrrolo[1,2-a]pyrazin-1-one], for which the values for the Ki in assay [6] and in assay [1] were 1.13 µM and 2.99 µM, respectively. In addition, the IC50 in assay [2] is 16.3 µM; in assay [3] it was 4.47 µM; in assay [4] it was more than 10 µM; in assay [5] it was less than 1 µM. Further, the “MI (Cellomics) MPM2 % of Control**” value in assay [2] stood at 239%.
In assay [1], `COc1cc(Nc2nccc(-c3c(C)c4n(c3C)CCNC4=O)n2)ccc1N1CCOCC1` [Example I-3, 7-[2-(3-Methoxy-4-morpholin-4-yl-phenylamino)-pyrmidin-4-yl]-6,8-dimethyl-3,4-dihydro-2H-pyrrolo[1,2-a]pyrazin-1-one] had a Ki of 2.79 µM. The IC50 is 4.74 µM in assay [2], 0.75 µM in assay [3], 1.85 µM in assay [4] and less than 0.1 µM in assay [5]. Also, the “MI (Cellomics) MPM2 % of Control**” value in assay [2] is on record as 317%.
`Cc1c(-c2ccnc(Nc3ccc(NS(C)(=O)=O)cc3)n2)c(C)n2c1C(=O)NCC2` [Example I-20, N-{4-[4-(6,8-Dimethyl-1-oxo-1,2,3,4-tetrahydro-pyrrolo[1,2-a]pyrazin-7-yl)-pyrimidin-2-ylamino]-phenyl}-methanesulfonamide]: the IC50 in assay [5] is less than 1 µM.
The same measure, in the same setting: as for `Cc1c(-c2ccnc(Nc3ccc(OCCN4CCOCC4)cc3)n2)c(C)n2c1C(=O)NCC2` [Example I-51, 6,8-Dimethyl-7-{2-[4-(2-morpholin-4-yl-ethoxy)-phenylamino]-pyrimidin-4-yl}-3,4-dihydro-2H-pyrrolo[1,2-a]pyrazin-1-one], the figure is less than 1 µM; as for `Cc1c(-c2ccnc(Nc3ccc4c(c3)OCO4)n2)c(C)n2c1C(=O)NCC2` [Example I-29, 7-[2-(Benzo-[1,3]dioxol-5-ylamino)-pyrimidin-4-yl]-6,8-dimethyl-3,4-dihydro-2H-pyrrolo[1,2-a]pyrazin-1-one], less than 1 µM.
On to `CC(=O)Nc1cccc(Nc2nccc(-c3c(C)c4n(c3C)CCNC4=O)n2)c1` [Example I-59, N-{3-[4-(6,8-Dimethyl-1-oxo-1,2,3,4-tetrahydro-pyrrolo[1,2-a]pyrazin-7-yl)-pyrimidin-2-ylamino]-phenyl}-acetamide], for which the IC50 in assay [5] is less than 0.1 µM.
Still for that read-out and setting: as for `Cc1c(-c2ccnc(Nc3ccc(-n4cncn4)cc3)n2)c(C)n2c1C(=O)NCC2` [Example I-73, 6,8-Dimethyl-7-[2-(4-[1,2,4]triazol-1-yl-phenylamino)-pyrimidin-4-yl]-3,4-dihydro-2H-pyrrolo[1,2-a]pyrazin-1-one], the figure is less than 1 µM.
